In US10293023B2, “Method of altering vascular permeability and uses thereof” (CHILDREN'S MEDICAL CENTER CORPORATION, priority 2013, dated 2019):

What was measured:
LOX [1] = test: LOX activity measured in blood samples (LOX activity assay kit); format: in vivo; conditions: treated mice vs control; BAPN 2 weeks, LOX siRNA 1 week
Method: LOX activity in the serum and lung homogenate was measured using LOX activity assay kit (ABD Bioquest, CA) in which LOX substrate that releases hydrogen peroxide was detected ^13,37,55. Hydroxyproline in lung tissue or serum was measured using Hydroxyproline assay kit (Biovision, Milpitas, Calif.)^27. The levels of IL-1 and TNF-α in the lung homogenate were measured by ELISA (R&D systems).

mouse lungs [2] = test: In vivo pulmonary permeability assay (Evan's Blue dye leakage); parameters: species or system mice
Method: (§1) Mice (6-10 weeks old, CD1 strain, female) were treated with LPS (100 mg, intraperitoneally) and lung permeability was assessed 2 days after injection ^3. […] The lung permeability was measured using Evan's Blue dye or low MW fluorescently labeled dextran (MW 4000, sigma) leakage ^3. Evans blue dye was extracted from the lung by incubation with formamide (70° C. for 24 h) and the concentration of Evans blue was estimated by dual-wavelength spectrophotometer (620 nm and 740 nm). Mice were treated with BAPN (3 mg/kg, drinking water) for 14 days ^13. […] The inventors treated the mice with LPS for the last two days. For decellularization of lung, the inventors perfused the lung with decellularization buffer (0.5% SDS/PBS) for 1 h and cryosectioned it and analyzed by H&E staining and immunohistochemistry 25,26. […] For analysis of collagen structure, the inventors used picrosirius red staining ^30 and observed the structure using birefringence microscope (Abrio imaging system, CRI, MA)^30.

mouse lungs [3] = test: Inflammatory cell count in BAL fluid (Wright-Giemsa stain); format: in vivo, mice; conditions: total inflammatory cell count
Method: BAL was performed by instilling 0.9% NaCl in two separate 0.5 ml aliquots. The fluid was recovered by gentle suction and placed on ice for immediate processing. An aliquot of the BAL fluid was processed immediately for differential cell counts performed on cytospin preparations stained with modified Wright-Giemsa stain (Diff-Quik; American Scientific Products, McGaw Park, Ill.).

[4] = test system: pulmonary endothelial cells; test: Endothelial cell-cell junctional integrity in lung by TEM; format: in vivo, mice
Method: For transmission electron microscopy (TEM), small pieces (1-2 mm cubes) of lung tissue were fixed with 2.5% Glutaraldehyde and 2% Paraformaldehyde in 0.1 M sodium cacodylate buffer (pH 7.4) for at least 2 h at RT, washed in 0.1M cacodylate buffer and postfixed with 1% Osmiumtetroxide (OsO4)/1.5% Potassiumferrocyanide (KFeCN6) for 1 h, washed in water and incubated in 1% aqueous uranyl acetate for 1 h followed by washes in water and subsequent dehydration in grades of alcohol. The samples were then put in propyleneoxide for 1 hr and infiltrated ON in a 1:1 mixture of propyleneoxide and TAAB Epon (Marivac Canada Inc. St. Laurent, Canada). The samples were then embedded in TAAB Epon and polymerized at 60 C for 48 hrs. Ultrathin sections (about 60 nm) were cut on a Reichert Ultracut-S microtome, picked up on to copper grids stained with lead citrate and examined in a JEOL 1400 TEM microscope or a TecnaiG^2 Spirit BioTWIN.

lung cell = test: Lung cell proliferation or apoptosis in vivo; parameters: species or system mice; conditions: data not shown
mouse lung tissues = test: Lung stiffness (Young's modulus) by tensile loading assay; conditions: compared with controls (control IgG, control siRNA)
Method: Mice (6-10 weeks old, CD1 strain, female) were treated with LPS (100 mg, intraperitoneally) and lung permeability was assessed 2 days after injection ^3. […] Gene knockdown or overexpression in the lung (2 days later) was confirmed by measuring mRNA and/or protein levels using qRT-PCR and IB, respectively. […] Mice were treated with BAPN (3 mg/kg, drinking water) for 14 days ^13. The inventors also treated mice with LOX function-blocking polyclonal antibody (3 mg/kg)^13,36, LOX DNA or LOX siRNA (10 mg/mouse) injected intravenously (retro orbital injection) twice per week. The inventors treated the mice with LPS for the last two days.
The inventors trimmed and made cylindrical lung tissue sections using a sharp knife that included peripheral and central portions of the left lobe. The stiffness of mouse lung tissues was evaluated by determining Young's Modulus (E) under tensile loading ^31,32 (Mach-1; Biomomentum, Canada). Tissues were attached to the base and probe using polyacrylamide glue and stretched until complete breakage of the tissue. The Young's Modulus was derived from the slope of a standard stress-strain curve using data within the first 10% of the maximum strain.

mouse lungs [5] = test: Endotoxin (LPS)-induced lung vascular permeability, Evan's Blue dye leakage; conditions: for increase of vascular permeability induced by LPS: treatment in combination with LPS for the last two days
Method: as §1

mouse lungs [6] = test: ECM and collagen structure of decellularized lung (H&E, immunofluorescence, picrosirius red birefringence); conditions: for collagen fiber alignment with alveolar septae: picrosirius red staining, birefringence microscopy
Method: as §1

LOX [7] = test: LOX mRNA and protein expression in vivo (qRT-PCR, immunoblot); parameters: species or system mice
Method: Quantitative reverse transcription (qRT)-PCR was performed with the Quantitect SYBR Green RT-PCR kit (QIAGEN) using ABI 7300 real time PCR system (Applied Biosystems, Foster City, Calif.). Cyclophilin controlled for overall cDNA content. The primers used for mouse cyclophilin were forward; 5′-[…]-3′ (SEQ ID NO:4), reverse; 5′-[…]-3′(SEQ ID NO:5)^15. The primers for mouse LOX were forward; 5′-[…]-3′(SEQ ID NO:6), reverse; 5′-[…]-3′(SEQ ID NO:7).

N#CCCN [BAPN, beta-aminopropionitrile]
decrease in LOX activity measured in blood samples (LOX [1]): 25% | lung vascular permeability: Evan's Blue dye leakage higher than in control non-treated lungs (mouse lungs [2]; BAPN treatment of healthy mice): more than 60% | increase of inflammatory cells in the bronchoalveolar lavage (BAL) fluid (mouse lungs [3]): approximately 2 fold | junctions between pulmonary endothelial cells [4]: disrupted | lung cell proliferation or apoptosis in vivo (lung cell): did not produce detectable changes | decrease of lung stiffness (Young's modulus) (mouse lung tissues): 40% | LPS-induced pulmonary edema in mice (mouse lungs [5]; mouse, in vivo): inhibits | increase of vascular permeability induced by LPS (mouse lungs [5]): prevented | disruption of collagen VI-positive ECM fibers by LPS (mouse lungs [6]; decellularized lungs, LPS in combination with BAPN): prevented this disruption | fine collagen fibril / ECM structure in decellularized lung (mouse lungs [6]; immunofluorescence microscopy): lost the fine network | collagen fiber alignment with alveolar septae (mouse lungs [6]): more randomly distributed

LOX siRNA: siRNA for mouse LOX, 5′-CAACGGGCAGGUGUUCAG-3′ (SEQ ID NO:2) and 5′-CUGAACACCUGCCCGUUG-3′ (SEQ ID NO:3) (listed as RNA, chemistry not given here)
decrease in LOX activity measured in blood samples (LOX [1]): 60% | increase of lung vascular permeability (mouse lungs [2]; Evan's Blue dye leakage, compared to control-treated or untreated mice): 2.5 fold | LOX expression in the lung (LOX [7]; mRNA and/or protein): specifically decreased | LOX expression in other organs, such as the kidney (LOX [7]; not shown): not in the kidney | decrease of lung stiffness (Young's modulus) (mouse lung tissues): 30% | increase of vascular permeability induced by LPS (mouse lungs [5]): restored | collagen fiber alignment with alveolar septae (mouse lungs [6]): disrupted normal collagen fiber alignment

CC(C)(S)[C@@H](N)C(=O)O [D-penicillamine]
suppression of vascular permeability induced by LPS treatment (mouse lungs [5]; Evans blue dye leakage, 8 mg/mouse/day, IP, two days): 40%
